# Assay results as given in ChEMBL document CHEMBL3217550, “Synthesis and synergistic antimycobacterial screening of chlorpromazine and its metabolites” (2014).
# Experiments:
# Assay type in all cases: functional
# [1] = tested on: Mycolicibacterium smegmatis; assay: Antimycobacterial against Mycobacterium smegmatis
# [2] = tested on: Mycolicibacterium smegmatis; assay: Antimycobacterial against Mycobacterium smegmatis in presence of TMC207
# [3] = tested on: Mycolicibacterium smegmatis; assay: Antimycobacterial against Mycobacterium smegmatis in presence of streptomycin
# [4] = tested on: Mycolicibacterium smegmatis; assay: Antimycobacterial against Mycobacterium smegmatis in presence of ciprofloxacin
# [5] = tested on: Mycolicibacterium smegmatis; assay: Antimycobacterial against Mycobacterium smegmatis in presence of rifampicin
# [6] = tested on: Mycolicibacterium smegmatis; assay: Antimycobacterial against Mycobacterium smegmatis in presence of kanamycin
# [7] = tested on: Mycolicibacterium smegmatis; assay: Antimycobacterial against Mycobacterium smegmatis in presence of 25-desacetylrifampicin
# [8] = tested on: Mycolicibacterium smegmatis; assay: Antimycobacterial against Mycobacterium smegmatis in presence of spectinomycin
# [9] = tested on: Mycolicibacterium smegmatis; assay: Antimycobacterial against Mycobacterium smegmatis in presence of chlorpromazine
smiles,measurement,setting,value
CNCCCN1c2ccccc2[S+]([O-])c2ccc(Cl)cc21 (configuration not stated),MIC99,[1],> 2080 µM
CN(C)CCCN1c2ccccc2Sc2ccc(Cl)cc21 [CHLORPROMAZINE],fractional inhibitory concentration index (FICI),[2],0.7
same,fractional inhibitory concentration index (FICI),[3],0.79
same,fractional inhibitory concentration index (FICI),[4],0.73
same,fractional inhibitory concentration index (FICI),[5],0.63
same,MIC99,[1],58.6 µM
same,fractional inhibitory concentration index (FICI),[6],1
same,fractional inhibitory concentration index (FICI),[7],0.5
same,fractional inhibitory concentration index (FICI),[8],0.31
CN[C@@H]1[C@H](O[C@H]2[C@H](O[C@H]3[C@H](O)[C@@H](O)[C@H](N=C(N)N)[C@@H](O)[C@@H]3N=C(N)N)O[C@@H](C)[C@]2(O)C=O)O[C@@H](CO)[C@H](O)[C@H]1O [STREPTOMYCIN],MIC99,[1],0.07 µM
CNCCCN1c2ccccc2Sc2ccc(Cl)cc21 [NOR1-CHLORPROMAZINE],fractional inhibitory concentration index (FICI),[3],0.49
same,fractional inhibitory concentration index (FICI),[5],0.5
same,MIC99,[1],63.3 µM
same,fractional inhibitory concentration index (FICI),[6],0.5
same,fractional inhibitory concentration index (FICI),[7],0.5
same,fractional inhibitory concentration index (FICI),[8],0.31
same,fractional inhibitory concentration index (FICI),[9],0.75
COc1nc2ccc(Br)cc2cc1[C@@H](c1ccccc1)[C@@](O)(CCN(C)C)c1cccc2ccccc12 [BEDAQUILINE],MIC99,[1],0.05 µM
NC[C@H]1O[C@H](O[C@H]2[C@H](O)[C@@H](O[C@H]3O[C@H](CO)[C@@H](O)[C@H](N)[C@H]3O)[C@H](N)C[C@@H]2N)[C@H](O)[C@@H](O)[C@@H]1O [KANAMYCIN],MIC99,[1],1.76 µM
C[N+](C)([O-])CCCN1c2ccccc2Sc2ccc(Cl)cc21,fractional inhibitory concentration index (FICI),[3],0.74
same,fractional inhibitory concentration index (FICI),[5],1
same,MIC99,[1],995 µM
same,fractional inhibitory concentration index (FICI),[6],1
same,fractional inhibitory concentration index (FICI),[7],0.75
same,fractional inhibitory concentration index (FICI),[8],0.63
CCn1cc(C(=O)O)c(=O)c2ccc(C)nc21 [NALIDIXIC ACID],MIC99,[1],1440 µM
CN[C@@H]1[C@H](O)[C@H](NC)[C@H]2O[C@@]3(O)C(=O)C[C@@H](C)O[C@H]3O[C@@H]2[C@H]1O [SPECTINOMYCIN],MIC99,[1],84.1 µM
CC[C@@H](CO)NCCN[C@@H](CC)CO [ETHAMBUTOL],MIC99,[1],0.76 µM
C[C@H]1COc2c(N3CCN(C)CC3)c(F)cc3c(=O)c(C(=O)O)cn1c23 [LEVOFLOXACIN],MIC99,[1],0.58 µM
CN(C)CCCN1c2ccc(O)cc2Sc2ccc(Cl)cc21 [7-HYDROXYCHLORPROMAZINE],fractional inhibitory concentration index (FICI),[3],0.79
same,fractional inhibitory concentration index (FICI),[5],0.63
same,MIC99,[1],62.2 µM
same,fractional inhibitory concentration index (FICI),[6],0.5
same,fractional inhibitory concentration index (FICI),[7],0.75
same,fractional inhibitory concentration index (FICI),[8],0.19
same,fractional inhibitory concentration index (FICI),[9],0.75
CN(C)CCCN1c2ccccc2[S+]([O-])c2ccc(Cl)cc21 (configuration not stated) [CHLOROPROMAZINE SULFOXIDE],MIC99,[1],> 1990 µM
CO[C@H]1/C=C/O[C@@]2(C)Oc3c(C)c(O)c4c(O)c(c(/C=N/N5CCN(C)CC5)c(O)c4c3C2=O)NC(=O)/C(C)=C\C=C\[C@H](C)[C@H](O)[C@@H](C)[C@@H](O)[C@@H](C)[C@H](O)[C@@H]1C [DESACETYLRIFAMPIN],fractional inhibitory concentration index (FICI),[5],0.5
same,MIC99,[1],1.33 µM
C[N+](C)([O-])CCCN1c2ccccc2[S+]([O-])c2ccc(Cl)cc21 (configuration not stated),MIC99,[1],> 1900 µM
O=C(O)c1cn(C2CC2)c2cc(N3CCNCC3)c(F)cc2c1=O [CIPROFLOXACIN],MIC99,[1],0.63 µM
CO[C@H]1/C=C/O[C@@]2(C)Oc3c(C)c(O)c4c(O)c(c(/C=N/N5CCN(C)CC5)c(O)c4c3C2=O)NC(=O)/C(C)=C\C=C\[C@H](C)[C@H](O)[C@@H](C)[C@@H](O)[C@@H](C)[C@H](OC(C)=O)[C@@H]1C [RIFAMPIN],MIC99,[1],1.26 µM
